Measurements from publication PMC11396062, “The n-Butanol Extract Obtained from the Inner Bark of Tabebuia rosea (Bertol.) DC, Specioside, and Catalposide Induce Leukemia Cell Apoptosis in the Presence of Apicidin” (Molecules, 2024).
Converted amounts (≈) assume the structure as drawn.

Assays:
[1] = tested on: p38 MAPK; experiment: Western blot p38 phosphorylation; assay type: cell-based, human; details: THP-1, APC pretreatment, p < 0.001
Experimental: THP-1 cells were seeded in 24-well plates (5 × 10^5 cells/well), and after 24 h of incubation, they were pretreated with 1 µM apicidin for 24 h and then treated with different concentrations of the n-butanol extract, catalposide, and specioside for 24 h. After treatment, the cells were lysed with an Abcam protein extraction kit (ab270054), and a phosphatase inhibitor cocktail (ab201115) was added. The supernatants of the cell extracts were quantified with a BCA protein assay (Thermo Scientific Pierce #23227, Waltham, MA, USA). Equivalent amounts of protein were electrophoresed on 10% SDS polyacrylamide gels and then electroblotted onto 0.45 μm polyvinylidene difluoride (PVDF) membranes (GE Healthcare, Chicago, IL, USA). […] The signals were detected using SuperSignal™ West Pico PLUS Chemiluminescent Substrate (Thermo Scientific Pierce cat 34577) and analyzed with a ChemiDoc XRS+ system (Bio-Rad, Hercules, CA, USA). The density of each band was measured using ImageJ software V. 1.53n, 7 November 2021 (NIH, Bethesda, MD, USA), and the protein levels were normalized to the GAPDH levels. The data are expressed as the means of three independent experiments. […]

[2] = tested on: BAX; experiment: RT-qPCR BAX mRNA expression; assay type: cell-based, human; details: THP-1, catalposide 44 and 66 μg/mL, specioside 20, 40 and 60 μg/mL
Experimental: After treatment, mRNA extraction was performed using the RNeasy Plus Mini Kit (Qiagen, Germantown, MD, USA; Cat No. 74134). The mRNA was quantified with a NanoDrop 2000c (Thermo Fisher Scientific, Waltham, MA, USA). The expression of the MAPK14 (gene encoding p38), BCL2, and BAX genes was evaluated by qRT–PCR and quantified with the 2^−ΔΔCt method in the Applied Biosystems StepOnePlus Real-Time PCR System (Applied Biosystems, Foster City, CA, USA), which uses predesigned TaqMan Gene Expression Assays (codes […], Hs00608023_m1, and Hs00180269_m1, respectively) (Applied Biosystems, Foster City, CA, USA) and the TaqMan® RNA-to-CT TM 1-Step Kit (Applied Biosystems, Foster City, CA, USA, Cat No. 4392653). The reaction mixture was incubated at 48 °C for 15 min and 95 °C for 10 min and then cycled (40 cycles) at 95 °C for 15 s and 60 °C for 1 min. GAPDH was used as an endogenous control.

[3] = tested on: THP-1 cells; experiment: Cell cycle analysis by flow cytometry; assay type: cell-based, human; details: THP-1 (Figure S6)
Experimental: After treatment with the extract, 7 × 10^4 cells were harvested, washed with PBS, fixed with 200 µL of ice-cold 70% ethanol, and maintained at 4 °C for 4 h before staining. The cell pellet was washed in 1X PBS, resuspended in 200 µL of Guava Cell Cycle reagent (#4500-0220, Millipore), and incubated in the dark at 37 °C for 30 min before analysis with a Guava flow cytometer (Merck Millipore, Bedford, MA, USA) using InCyte software (version 3.1, Merck Millipore).. Centrifugation was performed at 1200 rpm for 5 min at room temperature for each step.

[4] = tested on: Hep-G2 cells; set-up: method as in PMID 21678519; details: cited from earlier work
[5] = tested on: Jurkat cells; experiment: MTT cell viability assay, Jurkat cells; assay type: cell-based, human; details: for IC50: Homo sapiens, Jurkat, MTT, n = 3; for SI (selectivity index): IC50 PBMC / IC50 Jurkat
Experimental: Jurkat and THP-1 cell lines were purchased from the American Type Culture Collection (ATCC, Rockville, MD, USA); Jurkat is a human lymphocytic cell line representing acute T-cell leukemia, and THP-1 is a monocytic cell line that represents acute myelogenous leukemia (AML). […] Cat Nos. […] The cells were maintained at 37 °C in a humidified atmosphere with 5% CO2. The culture medium was exchanged with fresh medium every 2-3 days. Peripheral blood mononuclear cells (PBMCs) were isolated from normal human venous blood. Further, 10 milliliters of human blood was mixed with 10 mL of RPMI-1640 containing 50 μL of heparin and gradually poured over 1 mL of HISTOPAQUE®-1119 (Sigma). The plasma was removed by centrifugation at 3000 rpm for 30 min. The peripheral blood mononuclear cell-containing layer was collected with a pipette and diluted in 4 mL of PBS. PBMCs were harvested by centrifugation at 1500 rpm for 10 min at room temperature, resuspended in RPMI-1640 with 10% FBS, and incubated at 37 °C in 5% CO2 humidified air. […] Doxorubicin was used as a reference standard drug (positive control). After treatment, the medium was discarded; 200 μL of RPMI 1640 medium without phenol red containing 0.5 mg/mL MTT (Sigma Chemical Co., Saint Louis, MO, USA; Cat. No. […] The plates were incubated for four hours at 37 °C with 5% CO2 in a humidified atmosphere. The medium was discarded, and 100 μL of DMSO was added to solubilize the formazan crystals. The absorbance was measured with an ELISA microplate reader at 492 nm (ELx800; BioTek Instruments Inc., Winooski, VT, USA). The percentage of viable cells was calculated on the basis of the nontreated control (taken as 100%). […] Three independent assays were performed, each in triplicate. The selectivity index corresponds to the ratio of the IC50 value calculated for the activity of synthesized compounds on a regular cell line (PBMCs) to that of the IC50 calculated for cancer cell lines (Jurkat and THP-1). Values greater than two were optimal for an efficient selectivity index.

| IC50 ([5]; 12 h) | IC50 ([5]; 24 h) | IC50 ([5]; 48 h) | SMILES | phosphorylation of p38 in cells pretreated with APC compared with control [1] | expression of Bax mRNA with APC pretreatment [2] | percentage of cells in the G0/G1 phase compared with control [3] | effect in Hep-G2 cells [4] | SI (selectivity index) ([5]; 12 h) | SI (selectivity index) ([5]; 24 h) | SI (selectivity index) ([5]; 48 h) |
| --- | --- | --- | --- | --- | --- | --- | --- | --- | --- | --- |
| 107 ± 5.3 µg/mL (≈ 221 µM) | 92.8 ± 1.5 µg/mL (≈ 192 µM) | 71.2 ± 2.8 µg/mL (≈ 148 µM) | O=C(O[C@H]1[C@@H]2C=CO[C@@H](O[C@@H]3O[C@H](CO)[C@@H](O)[C@H](O)[C@H]3O)[C@@H]2[C@@]2(CO)O[C@@H]12)c1ccc(O)cc1 [Catalposide, catalposide] | significantly increased | increased | the increase was significant | only had cytotoxic and cytostatic effects | 1.18 | 0.94 | 0.61 |
| 137.7 ± 1.3 µg/mL (≈ 271 µM) | 81.7 ± 3.5 µg/mL (≈ 161 µM) | 68.9 ± 2.1 µg/mL (≈ 135 µM) | O=C(/C=C/c1ccc(O)cc1)O[C@H]1[C@@H]2C=CO[C@@H](O[C@@H]3O[C@H](CO)[C@@H](O)[C@H](O)[C@H]3O)[C@@H]2[C@@]2(CO)O[C@@H]12 [Specioside] | significantly increased | increased | the increase was significant |  | 1.20 | 0.86 | 0.79 |
